# Legend:
# [1] = Solubility in water; conditions: in words; partly relative to parent seleno-amino acid
# [2] = Stability compared with parent seleno-amino acid
# [3] = Tissue selenium content of lactating cows fed selenium premixes (milk serum, plasma, liver, whole blood); assay type: in vivo; conditions: for Liver Se / Milk Serum Se / Plasma Se / Whole Blood Se: female, cow
# Protocol: (§1) Three premixes were prepared for use in a field study in lactating cows. One of the premixes contained no additional source of selenium and was intended to serve as the placebo. The second contained sodium selenite and the third contained N-Succinyl L-Selenomethionine (Compound 2). Each of the premixes was prepared by mixing an amount of the selenium source with sufficient amount of finely ground sugar to contain 250 ppm of selenium. Each premix was color identified by the incorporation of a solution of a food color during formulation and given a letter designation by random selection. […] This was done to avoid any possible biases in the interpretation of the results of the feeding experiments. Thirty lactating cows were fed one of the three premixes as a daily topdress. The effect of these selenium sources on tissue selenium content and whole blood glutathione peroxidase activity were determined. All cows were fed a total mixed diet devoid of added selenium for an initial 8-week depletion period. Daily rations were topdressed with an amount of the premix to provide 7.5 mg selenium. Treatments were continued for 8-week followed by a 4-week depletion period. Milk samples were collected on one day per week beginning the week prior to the first depletion period (Week 0) and continuing through the 20 weeks of the experiment. The selenium content of the milk serum obtained after the samples were defatted was determined. Blood samples were collected on one day per week beginning the week prior to the first depletion period (Week 0) and at four week intervals throughout the experiment (Weeks 8, 12, 16 and 20 in Table 1). The blood samples were draw into trace-element free vacutainer tubes containing an anticoagulant. Aliquots of whole blood were analyzed for selenium and glutathione peroxidase activity. Other aliquots of blood were centrifuged to harvest plasma and the selenium content of the plasma samples was determined. Liver samples were obtained by biopsy on one day per week beginning the week prior to the first depletion period (Week 0) and at four week intervals throughout the experiment (Weeks 8, 12, 16 and 20 in Table 1). Liver samples were analyzed for selenium content. […] The dramatic changes in the selenium concentrations in response to changes in dietary intake of selenium indicate that these tissues are sensitive indicators of the dietary selenium status of the lactating cows. […] The changes in the selenium concentration and glutathione peroxidase activity (GPX) in whole blood in response to changing dietary selenium intake were less sensitive than those in milk serum, plasma and liver.
# [4] = system: glutathione peroxidase; assay: Whole-blood glutathione peroxidase activity of lactating cows fed selenium premixes; assay type: in vivo
# Protocol: as §1
# [5] = Wk 0, before first depletion period
# [6] = Wk 8, end of 8-week depletion, before treatment
# [7] = Wk 12, 4 weeks of topdress providing 7.5 mg selenium daily
# [8] = Wk 16, 8 weeks of topdress providing 7.5 mg selenium daily
# [9] = Wk 20, end of 4-week second depletion
compound,measurement,setting,value
"C[Se]CC[C@H](N)C(=O)OC(C)C.Cl [Compound 1, L-Selenomethionine Isopropyl Ester Hydrochloride]",Solubility in water,[1],readily soluble in water
same,Stability relative to L-selenomethionine,[2]; in the solid state and in solution,significantly more stable than L-selenomethionine
"C[Se]CC[C@H](NC(=O)CCC(=O)O)C(=O)O [Compound 2, (S)-4-(1-carboxy-3-(methylselanyl)propylamino)-4-oxobutanoic Acid]",Liver Se,"[3]; in vivo, 0 week of experiment",1151 ng/g dry wt.
same,Milk Serum Se,"[3]; in vivo, 0 week of experiment",14.96 ng/mL
same,Plasma Se,"[3]; in vivo, 0 week of experiment",63.5 ng/mL
same,Whole Blood Se,"[3]; in vivo, 0 week of experiment",144.0 ng/mL
same,Liver Se,"[3]; in vivo, 8 week of experiment",690 ng/g dry wt.
same,Milk Serum Se,"[3]; in vivo, 8 week of experiment",4.30 ng/mL
same,Plasma Se,"[3]; in vivo, 8 week of experiment",43.6 ng/mL
same,Whole Blood Se,"[3]; in vivo, 8 week of experiment",136.3 ng/mL
same,Liver Se,"[3]; in vivo, 20 week of experiment",1003 ng/g dry wt.
same,Milk Serum Se,"[3]; in vivo, 20 week of experiment",10.91 ng/mL
same,Plasma Se,"[3]; in vivo, 20 week of experiment",52.2 ng/mL
same,Whole Blood Se,"[3]; in vivo, 20 week of experiment",112.1 ng/mL
same,Bioavailability as source of dietary selenium,[3]; in vivo,more bioavailable source of dietary selenium than sodium selenite
same,Whole Blood GPX,[4]; [5],18.2 EU/ml
same,Whole Blood GPX,[4]; [6],19.2 EU/ml
same,Whole Blood GPX,[4]; [7],18.7 EU/ml
same,Whole Blood GPX,[4]; [8],17.5 EU/ml
same,Whole Blood GPX,[4]; [9],19.8 EU/ml
"C[Se]CC[C@H](NC(N)=O)C(=O)O [Compound 3, N-Carbamoyl L-Selenomethionine]",Solubility in water,[1],more soluble in water
same,Stability of the solution relative to parent seleno-amino acid,[2]; solution in water,appears to be more stable than the parent seleno-amino acid
"C[Se]CC[C@@H]1NC(=O)NC1=O [Compound 4, (S)-5-(2-(methylselanyl)ethyl)midazolidine-2,4-dione]",Solubility in water,[1],less soluble
same,Stability relative to parent seleno-amino acid,[2],appears to be more stable than the parent seleno-amino acid
"O=[Se](O)O [Sodium Selenite, reference compound]","Change of selenium concentrations in milk serum, plasma and liver on supplemented diet","[3]; Wk12 & Wk 16, 7.5 mg selenium daily",progressive and significant increases
same,Whole Blood GPX,[4]; [5],17.3 EU/ml
same,Whole Blood GPX,[4]; [6],17.9 EU/ml
same,Whole Blood GPX,[4]; [7],17.6 EU/ml
same,Whole Blood GPX,[4]; [8],16.1 EU/ml
same,Whole Blood GPX,[4]; [9],17.9 EU/ml
